How the values were obtained:
[1] = target: Activin receptor type-2A (Homo sapiens) (UniProt P27037); conditions: Compound concentration 1000.0 nM
[2] = target: NUAK family SNF1-like kinase 1 (Homo sapiens) (UniProt O60285); conditions: Compound concentration 1000.0 nM
[3] = target: Tyrosine-protein kinase BTK (Homo sapiens) (UniProt Q06187); conditions: Compound concentration 1000.0 nM
[4] = target: Calcium/calmodulin-dependent protein kinase type 1D (Homo sapiens) (UniProt Q8IU85); conditions: Compound concentration 1000.0 nM
[5] = target: Calcium/calmodulin-dependent protein kinase type 1G (Homo sapiens) (UniProt Q96NX5); conditions: Compound concentration 1000.0 nM
[6] = target: Cyclin-dependent kinase 13 (Homo sapiens) (UniProt Q14004); conditions: Compound concentration 1000.0 nM
[7] = target: Dual specificity tyrosine-phosphorylation-regulated kinase 1B (Homo sapiens) (UniProt Q9Y463); conditions: Compound concentration 1000.0 nM
[8] = target: Epidermal growth factor receptor (Homo sapiens) (UniProt P00533); conditions: Compound concentration 1000.0 nM
[9] = system: Epidermal growth factor receptor (Homo sapiens), P00533 [UNDEFINED MUTATION]; conditions: Compound concentration 1000.0 nM
[10] = target: Ephrin type-B receptor 6 (Homo sapiens) (UniProt O15197); conditions: Compound concentration 1000.0 nM
[11] = target: Receptor tyrosine-protein kinase erbB-3 (Homo sapiens) (UniProt P21860); conditions: Compound concentration 1000.0 nM
[12] = system: Fibroblast growth factor receptor 3 (Homo sapiens), P22607 [G697C]; conditions: Compound concentration 1000.0 nM
[13] = target: Receptor-type tyrosine-protein kinase FLT3 (Homo sapiens) (UniProt P36888); conditions: Compound concentration 1000.0 nM
[14] = target: Cyclin-G-associated kinase (Homo sapiens) (UniProt O14976); conditions: Compound concentration 1000.0 nM
[15] = target: Homeodomain-interacting protein kinase 4 (Homo sapiens) (UniProt Q8NE63); conditions: Compound concentration 1000.0 nM
[16] = target: Insulin-like growth factor 1 receptor (Homo sapiens) (UniProt P08069); conditions: Compound concentration 1000.0 nM
[17] = target: Insulin receptor (Homo sapiens) (UniProt P06213); conditions: Compound concentration 1000.0 nM
[18] = target: Tyrosine-protein kinase JAK1 (Homo sapiens) (UniProt P23458); conditions: Compound concentration 1000.0 nM
[19] = target: Mitogen-activated protein kinase 9 (Homo sapiens) (UniProt P45984); conditions: Compound concentration 1000.0 nM
[20] = target: Tyrosine-protein kinase Lck (Homo sapiens) (UniProt P06239); conditions: Compound concentration 1000.0 nM
[21] = target: Mitogen-activated protein kinase kinase kinase 3 (Homo sapiens) (UniProt Q99759); conditions: Compound concentration 1000.0 nM
[22] = target: Mitogen-activated protein kinase kinase kinase kinase 2 (Homo sapiens) (UniProt Q12851); conditions: Compound concentration 1000.0 nM
[23] = target: MAP/microtubule affinity-regulating kinase 4 (Homo sapiens) (UniProt Q96L34); conditions: Compound concentration 1000.0 nM
[24] = target: Microtubule-associated serine/threonine-protein kinase 1 (Homo sapiens) (UniProt Q9Y2H9); conditions: Compound concentration 1000.0 nM
[25] = target: Dual specificity mitogen-activated protein kinase kinase 4 (Homo sapiens) (UniProt P45985); conditions: Compound concentration 1000.0 nM
[26] = target: Serine/threonine-protein kinase MRCK alpha (Homo sapiens) (UniProt Q5VT25); conditions: Compound concentration 1000.0 nM
[27] = target: Serine/threonine-protein kinase 4 (Homo sapiens) (UniProt Q13043); conditions: Compound concentration 1000.0 nM
[28] = target: Muscle, skeletal receptor tyrosine-protein kinase (Homo sapiens) (UniProt O15146); conditions: Compound concentration 1000.0 nM
[29] = target: Myosin light chain kinase, smooth muscle (Homo sapiens) (UniProt Q15746); conditions: Compound concentration 1000.0 nM
[30] = target: Serine/threonine-protein kinase PAK 4 (Homo sapiens) (UniProt O96013); conditions: Compound concentration 1000.0 nM
[31] = system: Phosphatidylinositol 4,5-bisphosphate 3-kinase catalytic subunit alpha isoform (Homo sapiens), P42336 [I800L]; conditions: Compound concentration 1000.0 nM
[32] = target: Serine/threonine-protein kinase SIK3 (Homo sapiens) (UniProt Q9Y2K2); conditions: Compound concentration 1000.0 nM
[33] = target: Rho-associated protein kinase 1 (Homo sapiens) (UniProt Q13464); conditions: Compound concentration 1000.0 nM
[34] = target: Ribosomal protein S6 kinase alpha-1 (Homo sapiens) (UniProt Q15418); conditions: Compound concentration 1000.0 nM
[35] = target: Ribosomal protein S6 kinase alpha-6 (Homo sapiens) (UniProt Q9UK32); conditions: Compound concentration 1000.0 nM
[36] = target: Serine/threonine-protein kinase 35 (Homo sapiens) (UniProt Q8TDR2); conditions: Compound concentration 1000.0 nM
[37] = target: TRAF2 and NCK-interacting protein kinase (Homo sapiens) (UniProt Q9UKE5); conditions: Compound concentration 1000.0 nM
[38] = target: BDNF/NT-3 growth factors receptor (Homo sapiens) (UniProt Q16620); conditions: Compound concentration 1000.0 nM
[39] = target: Dual specificity protein kinase TTK (Homo sapiens) (UniProt P33981); conditions: Compound concentration 1000.0 nM
[40] = target: Phosphatidylinositol 3-kinase catalytic subunit type 3 (Homo sapiens) (UniProt Q8NEB9); conditions: Compound concentration 1000.0 nM
[41] = target: Wee1-like protein kinase 2 (Homo sapiens) (UniProt P0C1S8); conditions: Compound concentration 1000.0 nM
[42] = target: Serine/threonine-protein kinase WNK3 (Homo sapiens) (UniProt Q9BYP7); conditions: Compound concentration 1000.0 nM
[43] = target: Tyrosine-protein kinase Yes (Homo sapiens) (UniProt P07947); conditions: Compound concentration 1000.0 nM
[44] = target: Alpha-2B adrenergic receptor (Homo sapiens) (UniProt P18089); conditions: Compound concentration 10.0 uM
Rattus norvegicus = species on record: Rattus norvegicus; conditions: Compound concentration 10.0 uM

Chain of Receptor tyrosine-protein kinase erbB-3 (Homo sapiens) (P21860 whole entry): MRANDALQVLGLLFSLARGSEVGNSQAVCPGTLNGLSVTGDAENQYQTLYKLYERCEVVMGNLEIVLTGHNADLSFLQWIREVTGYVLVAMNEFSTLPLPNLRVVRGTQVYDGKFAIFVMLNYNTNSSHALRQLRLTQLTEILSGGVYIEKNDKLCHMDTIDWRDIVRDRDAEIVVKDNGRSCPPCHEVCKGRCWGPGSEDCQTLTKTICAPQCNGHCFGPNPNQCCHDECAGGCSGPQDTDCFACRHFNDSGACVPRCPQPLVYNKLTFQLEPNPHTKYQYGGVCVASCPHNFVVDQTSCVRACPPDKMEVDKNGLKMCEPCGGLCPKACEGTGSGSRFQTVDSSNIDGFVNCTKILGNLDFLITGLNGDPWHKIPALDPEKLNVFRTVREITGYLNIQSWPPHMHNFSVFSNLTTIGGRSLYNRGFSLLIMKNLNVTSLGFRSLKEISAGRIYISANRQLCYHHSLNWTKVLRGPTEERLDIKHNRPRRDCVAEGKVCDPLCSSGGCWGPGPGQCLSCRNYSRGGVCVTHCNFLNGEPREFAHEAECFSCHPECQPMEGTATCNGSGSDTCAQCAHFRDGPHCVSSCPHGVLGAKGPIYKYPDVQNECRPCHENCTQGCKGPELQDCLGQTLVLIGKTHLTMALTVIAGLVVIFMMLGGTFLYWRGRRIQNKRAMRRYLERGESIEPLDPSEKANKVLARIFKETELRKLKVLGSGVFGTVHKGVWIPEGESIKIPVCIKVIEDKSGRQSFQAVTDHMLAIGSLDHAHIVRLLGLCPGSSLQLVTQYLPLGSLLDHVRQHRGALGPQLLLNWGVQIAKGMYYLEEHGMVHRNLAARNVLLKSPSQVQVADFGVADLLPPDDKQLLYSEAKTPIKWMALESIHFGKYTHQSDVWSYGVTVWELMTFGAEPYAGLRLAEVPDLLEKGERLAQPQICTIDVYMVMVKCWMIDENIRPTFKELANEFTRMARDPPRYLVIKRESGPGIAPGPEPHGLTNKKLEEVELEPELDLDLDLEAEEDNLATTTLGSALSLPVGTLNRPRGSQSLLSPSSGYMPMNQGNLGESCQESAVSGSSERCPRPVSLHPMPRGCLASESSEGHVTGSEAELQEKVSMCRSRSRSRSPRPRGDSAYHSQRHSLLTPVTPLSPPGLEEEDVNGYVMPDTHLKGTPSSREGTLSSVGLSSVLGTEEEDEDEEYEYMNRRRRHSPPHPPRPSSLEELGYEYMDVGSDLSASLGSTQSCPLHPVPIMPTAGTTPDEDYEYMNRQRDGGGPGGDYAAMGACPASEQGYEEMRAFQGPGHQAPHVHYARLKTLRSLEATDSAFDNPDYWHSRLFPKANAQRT
Chain of Epidermal growth factor receptor (Homo sapiens), P00533 [UNDEFINED MUTATION] (P00533 whole entry, looked up, change not shown): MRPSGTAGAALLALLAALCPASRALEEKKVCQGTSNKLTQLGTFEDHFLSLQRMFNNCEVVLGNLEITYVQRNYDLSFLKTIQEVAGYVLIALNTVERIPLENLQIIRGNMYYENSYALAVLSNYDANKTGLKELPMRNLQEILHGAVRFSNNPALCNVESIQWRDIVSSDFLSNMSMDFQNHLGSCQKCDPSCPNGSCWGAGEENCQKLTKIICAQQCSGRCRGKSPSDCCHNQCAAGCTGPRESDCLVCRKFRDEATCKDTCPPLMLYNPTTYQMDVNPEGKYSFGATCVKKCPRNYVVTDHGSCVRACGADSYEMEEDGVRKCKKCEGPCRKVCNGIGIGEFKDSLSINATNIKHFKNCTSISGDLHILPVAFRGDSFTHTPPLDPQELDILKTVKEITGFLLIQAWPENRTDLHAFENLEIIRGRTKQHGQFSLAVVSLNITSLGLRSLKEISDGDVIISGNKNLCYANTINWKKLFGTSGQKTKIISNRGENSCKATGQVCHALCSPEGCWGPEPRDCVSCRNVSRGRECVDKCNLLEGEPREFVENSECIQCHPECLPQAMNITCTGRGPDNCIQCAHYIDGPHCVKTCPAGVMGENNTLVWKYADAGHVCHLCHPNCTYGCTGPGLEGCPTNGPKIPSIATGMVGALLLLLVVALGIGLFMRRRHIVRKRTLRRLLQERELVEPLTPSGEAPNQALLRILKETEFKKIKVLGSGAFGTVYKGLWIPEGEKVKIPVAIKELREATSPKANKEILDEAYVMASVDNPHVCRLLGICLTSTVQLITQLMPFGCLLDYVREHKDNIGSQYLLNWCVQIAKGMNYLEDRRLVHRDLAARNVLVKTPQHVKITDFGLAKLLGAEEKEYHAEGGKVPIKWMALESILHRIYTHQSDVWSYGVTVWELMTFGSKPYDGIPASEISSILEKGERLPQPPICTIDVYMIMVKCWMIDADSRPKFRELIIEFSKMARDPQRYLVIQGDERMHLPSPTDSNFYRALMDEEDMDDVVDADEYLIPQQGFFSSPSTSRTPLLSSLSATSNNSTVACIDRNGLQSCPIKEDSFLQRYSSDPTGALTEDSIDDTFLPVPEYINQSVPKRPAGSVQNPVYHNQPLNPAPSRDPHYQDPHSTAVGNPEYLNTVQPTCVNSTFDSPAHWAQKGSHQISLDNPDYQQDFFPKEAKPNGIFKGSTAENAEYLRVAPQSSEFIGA
Chain of Epidermal growth factor receptor (Homo sapiens) (P00533 whole entry): as the sequence (P00533 whole entry, looked up, change not shown) above
Chain of Calcium/calmodulin-dependent protein kinase type 1D (Homo sapiens) (Q8IU85 whole entry, looked up): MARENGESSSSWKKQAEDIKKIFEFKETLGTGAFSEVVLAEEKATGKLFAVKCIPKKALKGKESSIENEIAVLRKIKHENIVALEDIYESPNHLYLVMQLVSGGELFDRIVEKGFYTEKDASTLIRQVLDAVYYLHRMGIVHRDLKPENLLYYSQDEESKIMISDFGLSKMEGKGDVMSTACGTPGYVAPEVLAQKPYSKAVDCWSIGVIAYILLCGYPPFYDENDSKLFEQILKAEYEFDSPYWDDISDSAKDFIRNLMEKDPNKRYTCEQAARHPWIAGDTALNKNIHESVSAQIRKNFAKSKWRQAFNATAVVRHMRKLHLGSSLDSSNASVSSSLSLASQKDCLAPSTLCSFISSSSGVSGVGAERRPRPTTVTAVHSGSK
Chain of Dual specificity tyrosine-phosphorylation-regulated kinase 1B (Homo sapiens) (Q9Y463 whole entry, looked up): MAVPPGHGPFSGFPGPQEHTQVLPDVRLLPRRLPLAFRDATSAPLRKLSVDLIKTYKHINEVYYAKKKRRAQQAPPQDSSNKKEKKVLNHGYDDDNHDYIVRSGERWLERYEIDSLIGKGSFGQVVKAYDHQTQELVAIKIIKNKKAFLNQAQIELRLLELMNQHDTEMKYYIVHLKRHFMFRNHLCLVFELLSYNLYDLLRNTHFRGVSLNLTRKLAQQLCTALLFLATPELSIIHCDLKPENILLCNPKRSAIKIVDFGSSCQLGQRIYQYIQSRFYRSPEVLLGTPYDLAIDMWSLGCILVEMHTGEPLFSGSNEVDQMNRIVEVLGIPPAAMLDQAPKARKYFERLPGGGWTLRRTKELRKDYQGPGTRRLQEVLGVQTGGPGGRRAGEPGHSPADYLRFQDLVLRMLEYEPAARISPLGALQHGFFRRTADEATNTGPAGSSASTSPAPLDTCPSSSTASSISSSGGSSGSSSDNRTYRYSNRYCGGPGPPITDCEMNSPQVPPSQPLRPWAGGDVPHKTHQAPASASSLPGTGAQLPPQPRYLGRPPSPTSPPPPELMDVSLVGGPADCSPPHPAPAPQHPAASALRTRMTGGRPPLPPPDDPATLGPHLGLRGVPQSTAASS

## Cn1cncc1[C@](O)(COc1ccc(C#N)cc1-c1ccc(OC(F)(F)F)cc1)c1ccc(C#N)cc1 [ABT-100]
[1]
  residual activity: 100%
[2]
  residual activity: 81%
[3]
  residual activity: 92%
[4]
  residual activity: 100%
[5]
  residual activity: 96%
[6]
  residual activity: 67%
[7]
  residual activity: 58%
[8]
  residual activity: 80%
[9]
  residual activity: 80%
[10]
  residual activity: 95%
[11]
  residual activity: 87%
[12]
  residual activity: 60%
[13]
  residual activity: 87%
[14]
  residual activity: 97%
[15]
  residual activity: 86%
[16]
  residual activity: 92%
[17]
  residual activity: 100%
[18]
  residual activity: 70%
[19]
  residual activity: 89%
[20]
  residual activity: 82%
[21]
  residual activity: 100%
[22]
  residual activity: 100%
[23]
  residual activity: 56%
[24]
  residual activity: 92%
[25]
  residual activity: 89%
[26]
  residual activity: 78%
[27]
  residual activity: 86%
[28]
  residual activity: 93%
[29]
  residual activity: 88%
[30]
  residual activity: 100%
[31]
  residual activity: 85%
[32]
  residual activity: 67%
[33]
  residual activity: 100%
[34]
  residual activity: 89%
[35]
  residual activity: 91%
[36]
  residual activity: 100%
[37]
  residual activity: 81%
[38]
  residual activity: 92%
[39]
  residual activity: 100%
[40]
  residual activity: 91%
[41]
  residual activity: 84%
[42]
  residual activity: 100%
[43]
  residual activity: 94%
[44]
  inhibition: 8.46%
Rattus norvegicus
  inhibition: -1.86%

## Cn1cncc1[C@@](O)(COc1ccc(C#N)cc1-c1ccc(OC(F)(F)F)cc1)c1ccc(C#N)cc1 [A-108]
[1]
  residual activity: 98%
[2]
  residual activity: 100%
[3]
  residual activity: 82%
[4]
  residual activity: 100%
[5]
  residual activity: 85%
[6]
  residual activity: 87%
[7]
  residual activity: 38%
[8]
  residual activity: 100%
[9]
  residual activity: 60%
[10]
  residual activity: 100%
[11]
  residual activity: 89%
[12]
  residual activity: 97%
[13]
  residual activity: 100%
[14]
  residual activity: 91%
[15]
  residual activity: 100%
[16]
  residual activity: 100%
[17]
  residual activity: 84%
[18]
  residual activity: 92%
[19]
  residual activity: 92%
[20]
  residual activity: 100%
[21]
  residual activity: 81%
[22]
  residual activity: 100%
[23]
  residual activity: 100%
[24]
  residual activity: 100%
[25]
  residual activity: 100%
[26]
  residual activity: 81%
[27]
  residual activity: 100%
[28]
  residual activity: 100%
[29]
  residual activity: 99%
[30]
  residual activity: 100%
[31]
  residual activity: 84%
[32]
  residual activity: 97%
[33]
  residual activity: 100%
[34]
  residual activity: 72%
[35]
  residual activity: 94%
[36]
  residual activity: 100%
[37]
  residual activity: 99%
[38]
  residual activity: 88%
[39]
  residual activity: 100%
[40]
  residual activity: 100%
[41]
  residual activity: 100%
[42]
  residual activity: 100%
[43]
  residual activity: 100%
[44]
  inhibition: 20%
Rattus norvegicus
  inhibition: 9.56%

Reference: ChEMBL document CHEMBL4507257, “Data for DCP probe ABT-100” (2021)
